The text below walks through data of patent publication US20130288989A1, “NEW USE OF CHEMICAL INGREDIENTS IN CYNOMORIUM AS PHYTOESTROGEN” (TIANJIN UNIVERSITY OF TRADITIONAL CHINESE MEDICINE, priority 2010, published 2013).

“Also recorded” adds a separate entry of the source.

Assay type in all cases: cell-based
The target in one assay is T1, ERβ (Homo sapiens, UniProt Q92731).
T1 construct: expressed in transfected cells; host or cells: Hela cells (ER expression free)
Kind of assay: ERβ luciferase reporter gene transcription activation in transfected Hela cells. The conditions noted are these: for ERβ (% of the control) mean ± S.D. / ERβ (% of estradiol): Hela cells; for ERβ (% of the control) mean ± S.D.: 24 h; for ERβ (% of estradiol): estradiol at 10^−8M; for concentration at which the transcriptional activity of ERβ is agonized: luciferase reporter gene. The text has this:
(§1) Actually, estrogens show their biological activity by regulating estrogen responding genetic transcription.
(§2) Formulation of sample solutions of catechin, (−)epicatechin-3-O-gallate, naringenin-4′-O-glucoside, phlorizin, emodin, chrysophanol (separately obtained from Example 1):
(§3) Catechin, (−)epicatechin-3-O-gallate, naringenin-4′-O-glucoside, phlorizin, emodin, chrysophanol in corresponding weights were separately weighed precisely, than added with DMSO for dissolution, the corresponding sample solution high dose groups (10 μM or 1 μM), were diluted in certain times to separately obtain low dose groups (1 μM to 0.001 μM).
(§4) Under condition of 37° C. and 5% CO2, Hela cells were cultured in phenol red-free high sugar DMEM culture medium containing 10% calf serum in incubator, the cells were spread in 60% density on 96-well plate when cell density was about 90%, each well was added with 150 ul of phenol red-free DMEM culture medium containing 10% serum, cultivation was performed overnight. To each well of the 96-well plate, 100 ul of serum-free DMEM culture medium and 0.4 μg plasmid (ptk-ERE-luc 2 μg, tk-Renila 1 μg, ERα or ERβ 1 μg) were used for transfection. After 6 h of transfection, each well was added with 150 ul of serum-free phenol red-free DMEM culture medium. Three wells were selected form each group, added with 10^−8M estradiol E2, and substance to be tested in different concentrations, 15 ul/well (sample 4-5 concentration gradient groups), continuously cultured under condition of 37° C., 5% CO2 for 24 h. After 24 h, each well was added with 80 μl of cell disruption solution, and the cells were subjected to freeze thawing once to be sufficiently disrupted. As for the cell lysis solution of each well, its activities to firefly luciferase and Renila luciferase were separately measured.

For the next assay, the target named is T2, ERα (Homo sapiens, UniProt P03372).
T2 construct: expressed in transfected cells; host or cells: Hela cells (ER expression free)
T2 sequence (P03372 1-595): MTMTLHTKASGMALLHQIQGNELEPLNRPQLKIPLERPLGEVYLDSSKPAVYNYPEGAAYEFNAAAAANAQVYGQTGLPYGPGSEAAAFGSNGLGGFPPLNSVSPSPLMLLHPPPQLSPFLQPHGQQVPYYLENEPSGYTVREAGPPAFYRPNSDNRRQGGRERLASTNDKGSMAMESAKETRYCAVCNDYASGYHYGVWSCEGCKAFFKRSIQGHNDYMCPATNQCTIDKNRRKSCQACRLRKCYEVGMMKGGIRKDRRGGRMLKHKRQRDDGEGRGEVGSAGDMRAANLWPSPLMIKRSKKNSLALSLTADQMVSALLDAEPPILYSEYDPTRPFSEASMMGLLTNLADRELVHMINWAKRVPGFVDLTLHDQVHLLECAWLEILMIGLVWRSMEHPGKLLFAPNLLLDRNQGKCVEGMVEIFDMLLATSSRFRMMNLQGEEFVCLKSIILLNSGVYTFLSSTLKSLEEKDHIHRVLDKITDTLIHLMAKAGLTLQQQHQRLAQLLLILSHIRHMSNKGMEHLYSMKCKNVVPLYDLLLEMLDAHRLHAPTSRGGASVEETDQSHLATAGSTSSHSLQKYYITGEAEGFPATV
Kind of assay: ERα luciferase reporter gene transcription activation in transfected Hela cells. The conditions noted are these: for ERα (% of the control) mean ± S.D. / ERα (% of estradiol): Hela cells; for ERα (% of the control) mean ± S.D.: 24 h; for ERα (% of estradiol): estradiol at 10^−8M; for concentration at which the transcriptional activity of ERα is agonized: luciferase reporter gene.
Text: as §1, §2, §3, §4

The test system of another assay is estrogen receptor. Kind of assay: Estrogen receptor activation test: overall estrogen activity and ERβ versus ERα comparison. The conditions noted are these: for ERβ/ERα (both % of estradiol at 10^−8M): Hela cells; for estrogen activity / estrogen receptor activation (in words): estradiol as positive control; for selectivity to receptor subtypes (ERα vs ERβ): result in words. The protocol:
as §1, §4

T1 sequence (Q92731 whole entry): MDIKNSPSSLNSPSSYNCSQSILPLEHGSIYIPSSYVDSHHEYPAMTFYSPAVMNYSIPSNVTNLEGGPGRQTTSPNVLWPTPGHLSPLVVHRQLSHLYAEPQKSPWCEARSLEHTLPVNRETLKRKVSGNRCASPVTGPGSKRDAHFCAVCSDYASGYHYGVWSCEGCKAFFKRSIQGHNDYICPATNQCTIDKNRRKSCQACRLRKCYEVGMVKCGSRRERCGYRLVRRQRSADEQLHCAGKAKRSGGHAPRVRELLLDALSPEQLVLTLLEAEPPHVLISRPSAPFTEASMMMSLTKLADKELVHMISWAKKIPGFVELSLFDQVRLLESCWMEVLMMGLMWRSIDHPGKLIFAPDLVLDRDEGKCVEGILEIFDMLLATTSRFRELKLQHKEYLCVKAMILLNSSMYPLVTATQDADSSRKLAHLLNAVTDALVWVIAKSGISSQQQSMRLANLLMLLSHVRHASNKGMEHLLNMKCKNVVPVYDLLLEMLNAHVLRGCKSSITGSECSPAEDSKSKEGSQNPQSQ

`O=C(CCc1ccc(O)cc1)c1c(O)cc(O)cc1O[C@@H]1O[C@H](CO)[C@@H](O)[C@H](O)[C@H]1O` [Phlorizin, phlorizin]: the “ERβ (% of the control) mean ± S.D.” value was 147.95 ± 10.29 % of the control on ERβ (10^−5 M), 133.79 ± 5.45 % of the control on ERβ (10^−6 M), 116.14 ± 8.86 % of the control at ERβ (10^−7 M) and 109.38 ± 8.72 % of the control at ERβ (10^−8 M). Moreover, the “ERβ (% of estradiol)” value at ERβ (10^−5 M) is given as “(80.17) % of estradiol”; at ERβ (10^−6 M), “(72.50) % of estradiol”; at ERβ (10^−7 M) it was “(62.93) % of estradiol”; on ERβ (10^−8 M), “(59.27) % of estradiol”. In addition, the “concentration at which the transcriptional activity of ERβ is agonized” value on ERβ is recorded as 10^−6-10^−5 M. The “ERα (% of the control) mean ± S.D.” value was 137.71 ± 8.44 % of the control on ERα (10^−5 M), 122.09 ± 11.33 % of the control on ERα (10^−6 M), 118.40 ± 4.20 % of the control at ERα (10^−7 M) and 105.43 ± 13.57 % of the control on ERα (10^−8 M). Moreover, the “ERα (% of estradiol)” value on ERα (10^−5 M) is on record as “(72.38) % of estradiol”; at ERα (10^−6 M) it was “(64.17) % of estradiol”; on ERα (10^−7 M) it was “(62.23) % of estradiol”; at ERα (10^−8 M) it was “(55.41) % of estradiol”. Moreover, on ERα, the “concentration at which the transcriptional activity of ERα is agonized” value is 10^−6-10^−5 M. Besides, the “ERβ/ERα (both % of estradiol at 10^−8M)” value was determined as 1.11 in the assay on estrogen receptor (sample 10^−5 M), 1.13 in the assay on estrogen receptor (sample 10^−6 M), 1.01 in the assay on estrogen receptor (sample 10^−7 M) and 1.07 in the assay on estrogen receptor (sample 10^−8 M). Also, the “estrogen activity / estrogen receptor activation (in words)” value with estrogen receptor is “show relevance to estrogen receptor activation; also recorded: potent activity of estrogen”. The “selectivity to receptor subtypes (ERα vs ERβ)” value in the assay on estrogen receptor was “no significant selectivity to receptor subtypes”.
Take catechin: the “ERβ (% of the control) mean ± S.D.” value on ERβ (10^−5 M) is 115.59 ± 13.39 % of the control; at ERβ (10^−6 M), 103.71 ± 9.07 % of the control; on ERβ (10^−7 M) it was 102.57 ± 1.04 % of the control; at ERβ (10^−8 M), 101.93 ± 2.27 % of the control. Besides, the “ERβ (% of estradiol)” value at ERβ (10^−5 M) was “(59.86) % of estradiol”; on ERβ (10^−6 M), “(53.71) % of estradiol”; at ERβ (10^−7 M), “(53.12) % of estradiol”; on ERβ (10^−8 M) it was “(52.79) % of estradiol”. Further, the “concentration at which the transcriptional activity of ERβ is agonized” value at ERβ is recorded as 10^−5 M. For the same molecule, the “ERα (% of the control) mean ± S.D.” value is 128.00 ± 8.74 % of the control on ERα (10^−5 M), 108.85 ± 8.87 % of the control on ERα (10^−6 M), 106.72 ± 12.84 % of the control on ERα (10^−7 M) and 102.89 ± 10.21 % of the control at ERα (10^−8 M). Besides, the “ERα (% of estradiol)” value on ERα (10^−5 M) is reported as “(60.23) % of estradiol”; at ERα (10^−6 M) it was “(51.22) % of estradiol”; on ERα (10^−7 M), “(50.22) % of estradiol”; at ERα (10^−8 M), “(48.42) % of estradiol”. In addition, at ERα, the “concentration at which the transcriptional activity of ERα is agonized” value is given as 10^−5 M. The “ERβ/ERα (both % of estradiol at 10^−8M)” value with estrogen receptor (sample 10^−5 M) was 1.28; with estrogen receptor (sample 10^−6 M) it was 1.05; in the assay with estrogen receptor (sample 10^−7 M) it was 1.06; in the assay on estrogen receptor (sample 10^−8 M), 1.09. Further, in the assay on estrogen receptor, the “estrogen activity / estrogen receptor activation (in words)” value was “show relevance to estrogen receptor activation; also recorded: potent activity of estrogen”. Further, the “selectivity to receptor subtypes (ERα vs ERβ)” value in the assay on estrogen receptor is “no significant selectivity to receptor subtypes”.
